These results are taken from patent US9376421B2, “Compounds and methods for myotonic dystrophy therapy” (The Board of Trustees of the University of Illinois, priority 2014, dated 2016).

Entries after “also recorded” stand apart in the source; their conditions may differ.

Data set [1] relates to SV40 terminator mRNA in i(CUG)60 larvae. Kind of data set: SV40 mRNA level in i(CUG)60 larvae (real-time PCR). The data set is classed as in vivo, Drosophila. Conditions: 400 μM. In general terms: Real-time PCR tracks product formation cycle by cycle.
In data set [2] the test system is Drosophila bearing i(CUG)60. The experiment in a line: Treatment of control Drosophila bearing i(CUG)60. The following applies: in vivo. The text has this:
FIG. 15A-C. Rescuing disease phenotypes in DM1 Drosophila with ligands 2 and 9. […] The error bars represent the standard deviation of three independent experiments (“(CTG)60” is disclosed as SEQ ID NO: 5).

The test system of the next data set is d(CTG)12. Kind of data set: Isothermal titration calorimetry, d(CTG)12. The data set is classed as binding. The following applies: 25° C., 20 mM MOPS pH 7.0, 300 mM NaCl. As to the method: To directly assess the DNA-targeting ability of 9, ITC experiments were performed with oligonucleotide analogs of the various trinucleotide repeat sequences (Table 1). […] This supports the idea that 9 inhibits the transcription of CTG^exp by stabilizing its hairpin structure. […] The in vitro transcription experiment using (CTG[…]CAG)74 (SEQ ID NOS 3-4, respectively) and compounds 2, 5-7, and 9 was repeated but with (CUG)16 (SEQ ID NO: 1) added as a competitor.
Isothermal titration calorimetry (ITC) measurements were performed at 25° C. on a MicroCal VP-ITC (MicroCal, Inc., Northampton, Mass.). A standard experiment consisted of titrating 10 μL of a 500 μM ligand solution from a […] syringe (rotating at 300 rpm) into a sample cell containing 1.42 mL of a 10 μM DNA or RNA solution. An ITC experiment consisted of 28 total injections (first injection was 5 μL, subsequent injections were 10 μL), with a 10 s duration per injection and delay of 380 s between injections. The initial delay prior to the first injection was 300 s. To derive the heat associated with each injection, the area under each isotherm (microcalories per second versus seconds) was determined by integration by the graphing program Origin 7.0 (MicroCal, Inc. Northampton, Mass.). […]

For data set [3], the system named is Drosophila larvae expressing i(CUG)480. The experiment in a line: Larval crawling assay in DM1 Drosophila. The format is in vivo. Conditions: 400 μM; untreated i(CUG)480 9 lines/min. An excerpt:
To test the abilities of 2 and 9 to improve the locomotor behavior of Drosophila larvae, we used crawling assays (Nichols et al., J. Vis. Exp. 61, e3795 (2012); Lanson et al., Hum. Mol. Genet. 20, 2510-2523 (2011); Batlevi et al., Proc. Natl. Acad. Sci. U.S.A. 107, 742-747 (2010)). […] Those expressing i(CUG)480 (SEQ ID NO: 17) crossed only 9 lines/min (FIG. 9b). […] Importantly, the phenotypic improvement with both compounds was dose-dependent and 9 in all cases provided greater phenotypic reversal than did 2.
Drosophila lines were cultured in standard cornmeal medium supplemented with dry yeasts. Fly lines bearing UAS-(CTG)60 (SEQ ID NO: 5) and UAS-(CTG)480 (SEQ ID NO: 6) were kind gifts of Prof. Rubén Artero Allepuz (Universitat de València, Estudi General, Spain). The gmr-GAL4 and 24B-GAL4 lines were used to drive UAS transgene expression in eye and muscles respectively. Ligands 2 and 9 were dissolved in ddH2O and mixed with fly food. […]
Larval crawling assays were performed as described in Lanson et al (Hum. Mol. Genet. 20, 2510-2523 (2011)). […] The larvae were allowed to acclimate for a period of 1 min, and the total number of gridlines that the posterior end of the larvae passed in 1 min was determined Each set of experiment was repeated independently three times using larvae collected from separate genetic crosses.

For a further data set, the system named is (CUG)16. Kind of data set: (CUG)16 cleavage screening gel assay. The data set is classed as biochemical. The following applies: ligand 100 μM, (CUG)16 100 nM, 12 h, pH 7.4, 37° C., EtBr stain. How it is done:
FIG. 2. Cleavage screening gel. (CUG)16 (SEQ ID NO: 1) (100 nM) was incubated with ligands (100 μM) and (CUG)16 (SEQ ID NO: 1) (100 nM), 12 h, 37° C. The reaction mixture was loaded onto a 20% denaturing PAGE gel and RNA was detected by post-staining with EtBr.
The potential cleavage activity of 4-9 was screened using a simple gel shift assay with (CUG)16 (SEQ ID NO: 1). To screen the agents, each agent was incubated for 12 h with unlabeled (CUG)16 (SEQ ID NO: 1) at a final concentration of 100 μM at pH 7.4. The mixture was separated on an RNA denaturing gel and stained with EtBr (FIG. 2). No loss of (CUG)16 (SEQ ID NO: 1) intensity was observed upon treatment with 2, 7, or tris(2-aminoethyl)amine (10).
RNA was fast folded at 95° C. for 5 min, followed by placing in ice for 10 min. RNA with a final concentration of 100 nM was incubated with cleaving agents 100 μM (in screening assays) and with ligand 9 at different concentrations (5, 10, 50, 100 μM). The cleaving buffer was 50 mM Tris buffer (pH 7.4) containing 150 mM NaCl and 2 mM MgCl2. The final volume of the reaction mixture was 10 μL. The reaction was quenched by adding 8 μL of 8 M urea and 2 μL of RNA loading dye followed by heating at 95° C. for 5 min. The mixture was separated on a 20% RNA denaturing gel. For non-labeled RNA, the gel was stained with EtBr and observed under UV. […]

`N=C(NCCCCNc1nc(N)nc(N)n1)c1ccc(C(=N)NCCCCNc2nc(N)nc(N)n2)cc1` [Ligand 2]: in data set [1], the “SV40 mRNA levels in larvae having i(CUG)60” value was “no change”. Besides, the “effects on larval locomotion and eyes of i(CUG)60 Drosophila” value in data set [2] is recorded as “no effects”. In the data set on d(CTG)12, the “binding affinity toward d(CTG)12 by ITC” value was “lack of binding affinity; also recorded: no detectable binding”. Moreover, in data set [3], the average crawling speed entry was “ca. 13 lines/min”. The “loss of (CUG)16 intensity (RNA cleavage)” value with (CUG)16 was “No loss”.
